What was measured:
[1] = test system: SW620 cells (KRAS G12V); assay: Cell viability assay (Cell Counting Kit-8), KRAS G12V; assay type: cell-based; details: Homo sapiens, SW-620, SW620, 72 hrs
Summary of the method: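 Cells seeded overnight at 5,000/well (NCI-H358) or 2,000/well (AGS, SW620), then exposed to compound for 72 hrs at 0.5% DMSO final. CCK-8 read as OD450 minus OD650 after 2 hrs; IC50 from 4-parameter sigmoidal fit.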

[2] = target: KRAS G12C-BRAF complex (Homo sapiens (Human), UniProt P01116+P62937, G12C); assay: KRAS-BRAF with CYPA (500 nM) interaction assay (TR-FRET), G12C; assay type: biochemical
Summary of the method: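 TR-FRET read of compound- or compound-CYPA-driven disruption of BRAF binding by KRAS G12C, G12D or G12V, with CYPA at 500 nM. Compounds tested as 16-point 3-fold dilutions from 10 μM final, incubated 3 hours. Ex320/Em 665/615 nm ratio drop relative to DMSO wells marks disruption.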

[3] = test system: Miapaca-2 KRAS G12C + A59T cells; assay: Stable KRAS mutant cell line viability assay (CellTiter-Glo), G12C + A59T; assay type: cell-based; details: Homo sapiens, MIA PaCa-2, 72 h, Miapaca-2 mutant cells, 3 d
Source text: (§1) The aim of the study was to determine the potency and efficacy of compounds for cell proliferation using CellTiter-Glo® (CTG) Luminescent Cell Viability Assay (Promega Corp., Madison, WI). We cloned […] KRAS^G12C variant sequences with secondary mutations (V8A, V9Y, S17E, T58I, A59T, S65W, R68S, D69P, M72I, D92R, H95N, Y96D, Q99F, Q99W, Y96H, and F156L) into the Miapaca-2. Totally 14 stable Miapaca-2 mutant cell lines were established through lentivirus infection. For the cell viability assay, cells were dosed with compounds in a 9-point dose-response using a 4 fold dilution series at a top dose of 10 μM. KRAS mutant cells were maintained in DMEM+10% FBS+2.5% HI Horse serum+1% PS+1 μg/mL Puromycin and seeded into 96-well plates at 800-1,500 cells per well 24 h before compound addition and then incubated with compound for 3 d before assaying viability (CellTiter-Glo, Promega). Assays were performed in biological duplicates. Nonlinear regression curves were fitted using Xfit. IC50 (absolute IC50) is the dose at which the estimated viability is 50% relative to untreated wells.

[4] = test system: Miapaca-2 KRAS G12C + V9Y cells; assay: Stable KRAS mutant cell line viability assay (CellTiter-Glo), G12C + V9Y; assay type: cell-based; details: Homo sapiens, MIA PaCa-2, 72 h, Miapaca-2 mutant cells, 3 d
Source text: as §1

[5] = test system: Miapaca-2 KRAS G12C + H95N cells; assay: Stable KRAS mutant cell line viability assay (CellTiter-Glo), G12C + H95N; assay type: cell-based; details: Homo sapiens, MIA PaCa-2, 72 h, Miapaca-2 mutant cells, 3 d
Source text: as §1

[6] = test system: Miapaca-2 KRAS G12C + S65W cells; assay: Stable KRAS mutant cell line viability assay (CellTiter-Glo), G12C + S65W; assay type: cell-based; details: Homo sapiens, MIA PaCa-2, 72 h, Miapaca-2 mutant cells, 3 d
Source text: as §1

Chain of KRAS G12C-BRAF complex (P01116-2 other isoform, or with tags, fused parts or gaps G12C): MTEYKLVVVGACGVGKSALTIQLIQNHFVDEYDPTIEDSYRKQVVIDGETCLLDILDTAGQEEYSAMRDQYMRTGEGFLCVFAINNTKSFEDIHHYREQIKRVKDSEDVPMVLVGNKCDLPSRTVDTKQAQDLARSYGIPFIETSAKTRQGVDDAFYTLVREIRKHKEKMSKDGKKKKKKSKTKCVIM
Chain of KRAS G12C-BRAF complex (P62937 whole entry): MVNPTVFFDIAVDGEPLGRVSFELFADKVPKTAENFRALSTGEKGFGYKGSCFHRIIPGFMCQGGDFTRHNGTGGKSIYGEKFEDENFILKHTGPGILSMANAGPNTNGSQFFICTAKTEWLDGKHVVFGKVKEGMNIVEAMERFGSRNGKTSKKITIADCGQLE

## CO[C@@H](C)c1ncc(N2CCN(CC(F)(F)F)CC2)cc1-c1c2c3cc(ccc3n1CC(F)(F)F)-c1csc(n1)C[C@H](NC(=O)[C@H](C(C)C)N(C)C(=O)N1CCOCC1)C(=O)N1CCC[C@H](N1)C(=O)OCC(C)(C)C2 (atropisomer, axis not shown; (M)) [Example 6]
[1]
  IC50: 2 nM
[2]
  IC50: 23 nM
[3]
  IC50: 11 nM
[4]
  IC50: 2 nM
[5]
  IC50: 5 nM
[6]
  IC50: 6 nM
